Laboratory results: US7927639B2, “Mixture of Propionibacterium jensenii and Lactobacillus sp. with antimicrobial activities for the use as natural preservation system” (Eidgenossische Technische Hochschule Zurich, priority 2001, dated 2011)

Key:
Assay type in all cases: cell-based
fungi listed in Table 1 = assay: Antifungal activities in agar plates (overall statements); details: YM agar plates stored at 6° C.
Procedure: (§1) Agar plates were prepared, supplemented with Propionbacterium jensenii SM11 or an antimicrobial Lactobacillusor a combination of both. The cultures were previously grown separately for 72 h at 32° C. in supplemented whey permeate (SWP1), centrifugated, washed once and resuspended (1:1) in 0.85% NaCl and then serially diluted in dilution-buffer (0.85% NaCl, 0.1% peptone). Portions of 20 ml of agar were prepared with 10% of each dilution to give a final level of 10^5, 10^6, 10^7 and 10^8 cfu/ml. Agar plates were poured and after solidifying, portions of approximately 2-5 μl of broth cultures of the indicator strains were spot inoculated on the plates. YM agar was used for yeasts and moulds and BHI agar for bacteria. Triplex of the agar plates were stored at 6° C., 12° C. and 25° C. for up to 4 weeks and the growth of indicator organisms was controlled weekly for 6° C. or daily for 12° C. and 25° C. As a control, agar plates without supplementation of lactobacilli and propionibacteria were prepared as well as agar plates with an addition of 1 g/l Ka-Sorbat (EU-Richtlinie, Nr. 95/2/HG).
A total of 18 lactobacilli were tested for their antifungal activities alone or in combination with the high-antifungal Propionibacterium jensenii SM11. […]

[1] = test system: Candida parapsilosis 4-5/1; assay: Antifungal activity in agar plates; details: storage 21 days at 6° C.; cultures incorporated in agar plates at 10^8 cfu/ml (SM17, SM39 10^7 cfu/ml); Ka-Sorbat 1 g/l; spot-inoculation with 10^6 cfu/ml
Procedure: as §1
(§2) A total of 18 lactobacilli were tested for their antifungal activities alone or in combination with the high-antifungal Propionibacterium jensenii SM11. Therefore, the strains were incorporated, after centrifugation and a washing step in concentrations from 10^5 to 10^8 cfu/ml in YM agar plates on which the fungi listed in Table 1 were spotted in corresponding levels from 10^1 to 10^7 cfu/ml. The plates were stored in different batches at 6° C., 12° C. and 25° C. The growth of yeasts was controlled weekly or daily, respectively. […] A cell number of 10^8 cfu/ml of the Lactobacillus-strain and 10^8 cfu/ml of the Propionibacterium-strain was necessary for high inhibitory activities. Table 4 indicates five examples of the antifungal activities observed at 6° C. with a concentration of 10^8 cfu/ml (10^7 cfu/ml for Lactobacillus plantarum SM17) against spot-inoculated yeasts in a density of 10^6 cfu/ml and against spot-inoculated 3-day cultures of moulds.

Candida krusei 3-69/2 = assay: Antifungal activity in agar plates; details: storage 21 days at 6° C.; cultures incorporated in agar plates at 10^8 cfu/ml (SM17, SM39 10^7 cfu/ml); Ka-Sorbat 1 g/l; spot-inoculation with 10^6 cfu/ml
Procedure: as §1, §2

Candida reukaufii 4-73/4 = assay: Antifungal activity in agar plates; details: storage 21 days at 6° C.; cultures incorporated in agar plates at 10^8 cfu/ml (SM17, SM39 10^7 cfu/ml); Ka-Sorbat 1 g/l; spot-inoculation with 10^6 cfu/ml
Procedure: as §1, §2

[2] = test system: Candida pulcherrima 1-50/13; assay: Antifungal activity in agar plates; details: storage 21 days at 6° C.; cultures incorporated in agar plates at 10^8 cfu/ml (SM17, SM39 10^7 cfu/ml); Ka-Sorbat 1 g/l; spot-inoculation with 10^6 cfu/ml
Procedure: as §1, §2

Candida valida 1-48/8 = assay: Antifungal activity in agar plates; details: storage 21 days at 6° C.; cultures incorporated in agar plates at 10^8 cfu/ml (SM17, SM39 10^7 cfu/ml); Ka-Sorbat 1 g/l; spot-inoculation with 10^6 cfu/ml
Procedure: as §1, §2

Candida sp. 1-50/15 = assay: Antifungal activity in agar plates; details: storage 21 days at 6° C.; cultures incorporated in agar plates at 10^8 cfu/ml (SM17, SM39 10^7 cfu/ml); Ka-Sorbat 1 g/l; spot-inoculation with 10^6 cfu/ml
Procedure: as §1, §2

[3] = test system: Zygosaccharomyces bailii 1-48/1; assay: Antifungal activity in agar plates; details: storage 21 days at 6° C.; cultures incorporated in agar plates at 10^8 cfu/ml (SM17, SM39 10^7 cfu/ml); Ka-Sorbat 1 g/l; spot-inoculation with 10^6 cfu/ml
Procedure: as §1, §2

Candida magnoliae 1-35/1 = assay: Antifungal activity in agar plates; details: storage 21 days at 6° C.; cultures incorporated in agar plates at 10^8 cfu/ml (SM17, SM39 10^7 cfu/ml); Ka-Sorbat 1 g/l; spot-inoculation with 10^6 cfu/ml
Procedure: as §1, §2

[4] = test system: Sporobolomyces salmonicolor 3-46/2; assay: Antifungal activity in agar plates; details: storage 21 days at 6° C.; cultures incorporated in agar plates at 10^8 cfu/ml (SM17, SM39 10^7 cfu/ml); Ka-Sorbat 1 g/l; spot-inoculation with 10^6 cfu/ml
Procedure: as §1, §2

Candida silvicola 4-42/1 = assay: Antifungal activity in agar plates; details: storage 21 days at 6° C.; cultures incorporated in agar plates at 10^8 cfu/ml (SM17, SM39 10^7 cfu/ml); Ka-Sorbat 1 g/l; spot-inoculation with 10^6 cfu/ml
Procedure: as §1, §2

C/C=C/C=C/C(=O)[O-].[K+] [Ka-Sorbat]
++ (++ strong colony (≈0% inhibition)): colony growth of Candida reukaufii 4-73/4 (Candida reukaufii 4-73/4) | colony growth of Candida pulcherrima 1-50/13 [2] | colony growth of Candida sp. 1-50/15 (Candida sp. 1-50/15) | colony growth of Candida magnoliae 1-35/1 (Candida magnoliae 1-35/1) | colony growth of Candida silvicola 4-42/1 (Candida silvicola 4-42/1)
weaker inhibitory activity: antifungal (inhibitory) activity in agar plates, in words (fungi listed in Table 1)
− (− no colony (≈100% inhibition)): colony growth of Candida parapsilosis 4-5/1 [1] | colony growth of Candida krusei 3-69/2 (Candida krusei 3-69/2) | colony growth of Candida valida 1-48/8 (Candida valida 1-48/8) | colony growth of Zygosaccharomyces bailii 1-48/1 [3] | colony growth of Sporobolomyces salmonicolor 3-46/2 [4]
